Experimental data: publication PMC11079024, “Identification of a family of species-selective complex I inhibitors as potential anthelmintics” (Nature Communications, 2024)
“And” between values parts separate entries of the source, which are not always exact repeats. Equal entries are not always repeated.

Legend:
[1] = test system: L1 C. briggsae (AF16); assay: Liquid development and viability assay, C. briggsae; format: cell-based, Caenorhabditis briggsae; settings: liquid growth and development assay, 1 = like DMSO control, 0 = death
Excerpt: Supplementary Figure 9. Class A, B, and C benzimidazoles inhibit complex I of several Clade V nematode species in vitro. […]
against the in vitro complex I activity from C. elegans, C. briggsae, P. pacificus, and P. hermaphrodita […]
L1 C. elegans (N2), C. briggsae (AF16), and P. pacificus (PS312) in a nematode liquid growth and development assay. The colour-coded scale denotes the viability of nematodes following drug treatment relative to DMSO controls; white/pale-yellow indicates nematode growth and viability similar to DMSO controls and red indicates nematode death and arrested development. Data are the mean of at least three biological replicates. Due to seemingly poor growth in liquid culture, P. hermaphrodita was not tested in the liquid viability and development assay.
Supplementary Figure 9 (continued). Davie et al.

[2] = test system: C. elegans (N2) complex I (NADH:ubiquinone oxidoreductase); assay: biochemical; format: biochemical; settings: wild-type C. elegans mitochondria
Summary of the method: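 Complex I rate: initial linear slope of A600 over 15 min, expressed as percent of solvent control. Triple freeze-thawed mitochondria (0.2 mg/mL) in KPi pH 7.5, BSA 3 mg/mL, NADH 80 μM, decylubiquinone 60 μM, DCIP 160 μM, antimycin A, KCN.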

SMILES: Cc1nc2ccccc2n1Cc1ccc(Cl)cc1 [STK697993]
- viability score (0-1) relative to DMSO controls ([1]; 2 µM): 1.000
- viability score (0-1) relative to DMSO controls ([1]; 3.9 µM): 1.000
- viability score (0-1) relative to DMSO controls ([1]; 15.6 µM): 1.000
- viability score (0-1) relative to DMSO controls ([1]; 31.3 µM): 0.341
- viability score (0-1) relative to DMSO controls ([1]; 62.5 µM): 0.009
- viability score (0-1) relative to DMSO controls ([1]; 125 µM): 0.017
- viability score (0-1) relative to DMSO controls ([1]; 250 µM): 0.008

SMILES: c1ccc2[nH]c(-c3cscn3)nc2c1 [Thiabendazole]
- percent (%) in vitro complex I activity relative to solvent control ([2]; 0.125 µM, mean of replicates): 102.109%
- percent (%) in vitro complex I activity relative to solvent control ([2]; 0.125 µM, single replicate): 99.976% and 103.068% and 101.883% and 103.510%
- percent (%) in vitro complex I activity relative to solvent control ([2]; 0.313 µM, mean of replicates): 98.029%
- percent (%) in vitro complex I activity relative to solvent control ([2]; 0.313 µM, single replicate): 96.436% and 97.421% and 98.637% and 99.622%
- percent (%) in vitro complex I activity relative to solvent control ([2]; 0.625 µM, mean of replicates): 100.000%
- percent (%) in vitro complex I activity relative to solvent control ([2]; 0.625 µM, single replicate): 100.000%
- percent (%) in vitro complex I activity relative to solvent control ([2]; 1.5 µM, mean of replicates): 94.806%
- percent (%) in vitro complex I activity relative to solvent control ([2]; 1.5 µM, single replicate): 99.025% and 95.797% and 89.075% and 95.328%
- percent (%) in vitro complex I activity relative to solvent control ([2]; 3 µM, mean of replicates): 103.387%
- percent (%) in vitro complex I activity relative to solvent control ([2]; 3 µM, single replicate): 101.704% and 108.843% and 104.258% and 98.742%
- percent (%) in vitro complex I activity relative to solvent control ([2]; 15 µM, mean of replicates): 102.027%
- percent (%) in vitro complex I activity relative to solvent control ([2]; 15 µM, single replicate): 100.357% and 106.821% and 103.640% and 97.291%
- percent (%) in vitro complex I activity relative to solvent control ([2]; 37.5 µM, mean of replicates): 98.201%
- percent (%) in vitro complex I activity relative to solvent control ([2]; 37.5 µM, single replicate): 99.533% and 98.195% and 100.518% and 94.556%
- percent (%) in vitro complex I activity relative to solvent control ([2]; 75 µM, mean of replicates): 97.767%
- percent (%) in vitro complex I activity relative to solvent control ([2]; 75 µM, single replicate): 97.247% and 98.620% and 98.499% and 96.702%
